Data published in patent publication US6846674B2, “Genetically modified fibroblast cells” (Deutsche Krebsforschungszentrum Stiftung des Offentlichen …, priority 2000, dated 2005).
“Also recorded” adds a separate entry of the source.

What was measured:
[1] = tested on: primary human keratinocytes; test: 2D coculture of c-jun −/− c-JunER™ fibroblasts with primary human keratinocytes; assay type: cell-based; details: 100 nM every 12 hours, three days, immunofluorescence
Source text: The corresponding controls remained untreated.

[2] = tested on: keratinocytes (epithelial formation and differentiation); test: organotypical cultures with c-jun −/− fibroblasts, application of cytokines; assay type: cell-based, human; details: for phenotype obtained in organotypical cultures with c-jun −/−: FIG. 6
Protocol: Type 1 collagen was prepared from rat tail tendons and provided at a concentration of 4 mg/ml in 0.1% acetic acid as rdady-to-use solution (Smola et al., 1993). The collagen gels used consisted of 80% by volume of 4 mg/ml collagen in 0.1% acetic acid, 10% by volume Hank's salt solution (concentrated tenfold) and 10% by volume FCS with or without cells (2×10^5 cells/ml). The liquid collagen was admixed with Hank's solution on ice and neutralized with 5 M NaOH with stirring (trypsinated cells taken up in FCS can then be added to the collagen solution by stirring). The gel solution was poured into cell culture dishes or 2.5 ml each into filter inserts (3 μm pore size, Becton Dickinson, Heidelberg, Germany) and allowed to stay in an incubator to form a gel for 1 hour. Sterile glass rings having an internal diameter of 18 mm (1.5 mm wall thickness, 12 mm height) were placed onto the gels and slightly pressed thereon. Following 1 h in the incubator, the collagen gels were equilibrated in DMEM with 10% FCS. After 24 h, the medium was withdrawn from the glass rings and 1 ml keratinocyte suspension (9×10^5 cells/ml FAD) each were seeded into the glass ring interior. After 24 h of incubation, the medium was removed from the keratinocytes so as to expose the cells to air. This time was defined as day 0 of the organotypcial cultures. DMEM having 10% FCS was exchanged every other day, the medium level in this case bordering on the top gel rim. For histological or immunohistochemical processing, the cultures were fixed or frozen. In order to detect proliferating cells in a culture by immunohistochemical methods, the cultures BrdU (Sigma) were added to the medium at a concentration of 65 μM 12 h prior to fixing.
2D cocultures on plastic dishes or glass slides or in 3D form as organotypical cultures were incubated in corresponding standard medium for 24 h. Thereafter, medium enriched with cytokines was added and the cultures were incubated therewith depending on the experiment for several hours or days, the medium being changed with factor added every other day. Supplier of the growth factors and antibodies: KGF (BTS, St. Leon, Germany); anti-GM-CSF, polyclonal, neutralizing (R&D-Systems, Wiesbaden, Germany); GM-CSF (Boehringer Mannheim, Germany) and anti-KGF, monoclonal, neutralizing (R&D-Systems).
In the case of monolayer cultures of adherent cells, the medium was withdrawn from the cells and the cells were fixed on the glass slides in 80% methanol for 5 min. and 100% acetone for 3 min. The slides were then dried and stored at −40° C. For the production of paraffin preparations, organotypical cocultures or skin biopsies wee fixed in 3.5% formaldehyde (in PBS+) for at least 24 h, and initially embedded in agar and then in paraffin (Medim, Vogel company, GieβSen, Germany). The preparations were cut into 2 μm sections which were stained histologically with hematoxylin (15 min.) and eosin (5 min.). Following deparaffinization it was also possible to use the paraffin sections for immunohistochemical analyses. For the production of frozen preparations, skin samples or organotypical cocultures were frozen on cork platelets in embedding gel (“Tissue Teck”, O.C.T., Frankfurt, Germany) on liquid nitrogen. The preparations were stored at −80° C. 5-μm sections were prepared using a freezing microtome, placed onto silanized slides and used for immunohistochemical analyses.
Paraffin sections were deparaffinized in a descending alcohol series and rinsed in PBS. Thereafter, the epitopes on the tissue sections were made accessible by boiling the sections in “Tuf” solution for 5 min. (Advanced Biotechnologies, Hamburg, Germany) and 0.1% trypsin at 37° C. or microwave treatment in 0.1 M citrate buffer for 30 min. Freeze sections were fixed in 80% methanol for 5 min., then in acetone for 2 min. For detecting the incorporation of BrdU (proliferation assay), the sections were incubated in 1.5 M HCI for 10 min. to denature the DNA strands. […]

CC/C(=C(\c1ccc(O)cc1)c1ccc(OCCN(C)C)cc1)c1ccccc1 [4-OH-tamoxifen]
enhanced expression of the differentiation marker K1/K10 [1]: can be eliminated again

GM-CSF: cytokine GM-CSF (Boehringer Mannheim, Germany)
phenotype obtained in organotypical cultures with c-jun −/− [2]: can partially be reversed | K1/K10 expression ([2]; c-jun −/− fibroblasts): expressed late | differentiation status of the epithelium ([2]; c-jun −/− fibroblasts): does not correspond to the normal condition | epithelial formation ([2]; c-jun −/− fibroblasts): eliminates the reduced epithelial formation; also recorded: effects an enhanced epithelial formation | loricrin expression (timing) ([2]; c-jun −/− fibroblasts): expressed prematurely | transglutaminase, filaggrin and loricrin expression ([2]; c-jun −/− fibroblasts): expressed enhancedly

B1: KGF: cytokine / growth factor KGF (BTS, St. Leon, Germany) (protein, UniProt P21781 32-194, looked up)
Fibroblast growth factor 7: CNDMTPEQMATNVNCSSPERHTRSYDYMEGGDIRVRRLFCRTQWYLRIDKRGKVKGTQEMKNNYNIMEIRTVAVGIVAIKGVESEFYLAMNKEGKLYAKKECNEDCNFKELILENHYNTYASAKWTHNGGEMFVALNQKGIPVRGKKTKKEQKTAHFLPMAIT
phenotype obtained in organotypical cultures with c-jun −/− [2]: can partially be reversed | differentiation status of the epithelium ([2]; c-jun −/− fibroblasts): the full differentiation status is not restored | epithelial formation ([2]; c-jun −/− fibroblasts): eliminates the reduced epithelial formation | granular layer and expression of the differentiation markers filaggrin and loricrin ([2]; c-jun −/− fibroblasts, histology): lack
